Source: US7659333B2, “Fluorinated surfactants for use in making a fluoropolymer” (3M Innovative Properties Company, priority 2005, dated 2010)

Experiment: Determination of bio-accumulation: urinary clearance pharmacokinetic study in rats
Format: in vivo, male Sprague Dawley rats
Protocol: The goal was to measure the total amount of parent compound eliminated via urinary output and estimate the rate of elimination.
The study utilized male Sprague Dawley rats, 6 to 8 weeks of age, and approximately 200 to 250 g body weight at study onset. The test compounds of table 2 were administered at a dose of 73 micro Moles per kg body weight in rats (N=3 animals per tested compound). All test compounds were prepared in sterile deionized water and given to rats via oral gavage. After test compounds administration, the rats were housed individually in metabolism cages for urine collection: 0 to 6 hours, 6 to 24 hours, 24 to 48 hours and 72 to 96 hours. Animals were observed throughout the study for clinical signs of toxicity. Gross necropsy was performed at the termination of each study (96 hours post-dose) with sera and liver samples being retained from each animal.
The concentration of the parent compound or metabolites thereof were quantitatively measured via fluorine NMR on each urine sample for each animal at each time point based on internally added standards.
T ½ and % recovery are based on elimination of the major metabolite—C3F7—O—CHFCOO^−. T1/2 is the renal half-life and is the time required for the amount of a particular substance in a biological system to be reduced to one half of its value by biological processes when the rate of removal is approximately exponential. In these examples the value of T1/2 is calculated by exponential least squares curve fitting (y=Ae^Bx and T1/2=0.693/B) where y represents the concentration of analyte in urine and x represents time in hours.

Compound	% Recovery (96 h) (male Sprague Dawley rats, 73 micro Moles per kg oral gavage, recovery in urine after 96 h, values marked * based on major metabolite C3F7—O—CHFCOO−) [%]	Compound-related Effects (male Sprague Dawley rats, 73 micro Moles per kg oral gavage, clinical signs observed, gross necropsy at 96 hours post-dose)	half-life (rat, in vivo, 73 micro Moles per kg body weight, male Sprague Dawley rats, 73 micro Moles per kg oral gavage, urine 0-96 h by fluorine NMR, exponential least squares fit, values marked * based on elimination of major metabolite C3F7—O—CHFCOO−, read-out: T ½ (h) (renal half-life))	parent compound in the urine (rat, in vivo, po)
N.O=C(O)C(F)(F)C(F)(F)C(F)(F)C(F)(F)C(F)(F)C(F)(F)C(F)(F)F [APFO, ammonium perfluorooctanoic acid]	6	Hepatomegaly	~550	
C3F7—O—C2HF3—O—CH2—COO^−NH4 [Example 2]				No parent compound observed in the urine
